How the values were obtained:
[1] = tested on: patients with moderate and high risk NSTE-ACS; test: ACUITY analysis: clinical outcomes at 30 days, consistent UFH/enoxaparin plus GP IIb/IIIa inhibitor vs switch to bivalirudin, and antithrombin-naïve patients; settings: human, in vivo
Text: A total of 4215 patients received prior antithrombin therapy with either UFH or enoxaparin before randomization. Of these, 2137 were randomized to receive the same antithrombin plus a GP IIb/IIIa inhibitor (consistent), while 2078 patients were randomized to receive bivalirudin (switch). There were 2889 patients naïve to antithrombin therapy at randomization, and of these, 1462 patients were randomized to UFH/enoxaparin plus a GP IIb/IIIa inhibitor and 1427 to bivalirudin monotherapy (FIG. 1).
At 30 days, there was no difference in composite ischemia between the two groups: 6.9% for patients switched to bivalirudin vs. 7.4% for patients remaining on consistent UFH/enoxaparin ([RR 0.93; 0.75-1.16], p=0.52). […] Transfusions were also lower in the patients switched to bivalirudin vs. patients remaining on consistent UFH/enoxaparin (1.5% vs. 2.6% [RR 0.60; 0.39-0.92], p=0.02). (Table 2, FIG. 2).
Tables 3a and 3b show clinical outcomes according to type of heparin therapy (UFH or enoxaparin) in patients on prior antithrombin therapy and in patients naive to antithrombin therapy. […]

[2] = in vivo; cited from earlier work
[3] = tested on: patients with moderate and high risk NSTE-ACS; settings: ACUITY; bivalirudin monotherapy vs UFH/enoxaparin plus a GP IIb/IIIa inhibitor; cited from earlier work

Row | Major bleeding, number of patients [1] | Transfusion, number of patients [1] | Compound | doses not causing adverse effects [2] | absolute reduction in major bleeding [3] [%] | relative reduction in major bleeding [3] [%]
1 | 42 | 19 | enoxaparin |  |  | 
2 |  |  | CC[C@H](C)[C@H](NC(=O)[C@H](CCC(=O)O)NC(=O)[C@H](CCC(=O)O)NC(=O)[C@H](Cc1ccccc1)NC(=O)[C@H](CC(=O)O)NC(=O)CNC(=O)[C@H](CC(N)=O)NC(=O)CNC(=O)CNC(=O)CNC(=O)CNC(=O)[C@@H]1CCCN1C(=O)[C@H](CCCNC(=N)N)NC(=O)[C@@H]1CCCN1C(=O)[C@H](N)Cc1ccccc1)C(=O)N1CCC[C@H]1C(=O)N[C@@H](CCC(=O)O)C(=O)N[C@@H](CCC(=O)O)C(=O)N[C@@H](Cc1ccc(O)cc1)C(=O)N[C@@H](CC(C)C)C(=O)O [Bivalirudin, bivalirudin] | up to 7.5 mg/kg | 2.7 | 47

Source: US20090247465A1, “Novel Use of Bivalirudin in the Treatment of Acute Coronary Syndrome” (priority 2008, published 2009)
